Source: the NIST ThermoML archive (doi:10.1016/j.fluid.2012.10.024)

How the values were obtained:
[1] = mn = molality of the nth substance listed, in mol/kg; conditions: 101 kPa, Liquid, Vibrating tube method
[2] = 101.33 kPa, Liquid, Vibrating tube method

OCC1CCCNC1 (stereo unspecified) [3-(hydroxymethyl)piperidine] + O
mass density [kg/m3], [1]
Conditions	m1 = 0.0562	m1 = 0.0841	m1 = 0.1205	m1 = 0.1576	m1 = 0.188	m1 = 0.2257	m1 = 0.2728	m1 = 0.3059	m1 = 0.3481
293.15 K	999.04	999.09	999.36	999.67	999.94	1000.2	1000.48	1000.72	1000.95
298.15 K	997.9	997.94	998.2	998.52	998.77	999.02	999.285	999.52	999.74
303.15 K	996.5	996.53	996.79	997.1	997.34	997.58	997.835	998.06	998.27
308.15 K	994.87	994.9	995.16	995.46	995.7	995.93	996.165	996.39	996.59
313.15 K	993.05	993.07	993.32	993.61	993.85	994.07	994.3	994.52	994.71
318.15 K	991.04	991.06	991.3	991.58	991.82	992.02	992.25	992.46	992.64

OCc1ccccn1 [α-picolyl alcohol]
[2]
Conditions	mass density [kg/m3]
291.15 K	1133.6
292.15 K	1133.1
293.15 K	1132.4
295.15 K	1130.7
297.15 K	1129.3
298.15 K	1128.7
299.15 K	1127.7
300.15 K	1127.1
302.15 K	1125.6
303.15 K	1124.8
304.15 K	1124
306.15 K	1122.4
308.15 K	1120.8
310.15 K	1119.4
312.15 K	1118.1
313.15 K	1117.2
315.15 K	1115.6
317.15 K	1114.2
318.15 K	1113.5

OCc1cccnc1 [β-picolyl alcohol]
[2]
Conditions	mass density [kg/m3]
291.15 K	1138.2
292.15 K	1137.5
293.15 K	1136.8
295.15 K	1135.3
297.15 K	1134.1
298.15 K	1133.5
299.15 K	1132.6
300.15 K	1131.8
302.15 K	1130.4
303.15 K	1129.6
304.15 K	1128.9
306.15 K	1127.5
308.15 K	1125.9
310.15 K	1124.7
312.15 K	1123.5
313.15 K	1122.6
315.15 K	1121.2
317.15 K	1120
318.15 K	1119.3

OCC1CCCCN1 (stereo unspecified) [2-(hydroxymethyl)piperidine] + O
mass density [kg/m3], [1]
Conditions	m1 = 0.0476	m1 = 0.0676	m1 = 0.0864	m1 = 0.1214	m1 = 0.1524	m1 = 0.1766	m1 = 0.2009	m1 = 0.2264	m1 = 0.2609
293.15 K	998.6	998.75	998.87	999.15	999.37	999.52	999.71	999.87	1000.11
298.15 K	997.46	997.6	997.72	997.99	998.2	998.34	998.53	998.68	998.91
303.15 K	996.06	996.19	996.31	996.57	996.77	996.91	997.09	997.24	997.46
308.15 K	994.44	994.56	994.68	994.93	995.13	995.26	995.43	995.58	995.79
313.15 K	992.59	992.74	992.85	993.1	993.28	993.41	993.58	993.72	993.92
318.15 K	990.6	990.72	990.83	991.07	991.25	991.37	991.53	991.66	991.86
